Data published in patent publication US7041677B2, “Use of monochloroflosequinan in the treatment of sexual dysfunction” (R.T. Alamo Ventures I, LLC, priority 2002, dated 2006).

Biological target: T1, PDE6 (Bos taurus, UniProt P11541+P23439)
T1 construct: from tissue; host or cells: bovine retinal rod outer segments
T1 sequence (P11541 2-856 limits assumed): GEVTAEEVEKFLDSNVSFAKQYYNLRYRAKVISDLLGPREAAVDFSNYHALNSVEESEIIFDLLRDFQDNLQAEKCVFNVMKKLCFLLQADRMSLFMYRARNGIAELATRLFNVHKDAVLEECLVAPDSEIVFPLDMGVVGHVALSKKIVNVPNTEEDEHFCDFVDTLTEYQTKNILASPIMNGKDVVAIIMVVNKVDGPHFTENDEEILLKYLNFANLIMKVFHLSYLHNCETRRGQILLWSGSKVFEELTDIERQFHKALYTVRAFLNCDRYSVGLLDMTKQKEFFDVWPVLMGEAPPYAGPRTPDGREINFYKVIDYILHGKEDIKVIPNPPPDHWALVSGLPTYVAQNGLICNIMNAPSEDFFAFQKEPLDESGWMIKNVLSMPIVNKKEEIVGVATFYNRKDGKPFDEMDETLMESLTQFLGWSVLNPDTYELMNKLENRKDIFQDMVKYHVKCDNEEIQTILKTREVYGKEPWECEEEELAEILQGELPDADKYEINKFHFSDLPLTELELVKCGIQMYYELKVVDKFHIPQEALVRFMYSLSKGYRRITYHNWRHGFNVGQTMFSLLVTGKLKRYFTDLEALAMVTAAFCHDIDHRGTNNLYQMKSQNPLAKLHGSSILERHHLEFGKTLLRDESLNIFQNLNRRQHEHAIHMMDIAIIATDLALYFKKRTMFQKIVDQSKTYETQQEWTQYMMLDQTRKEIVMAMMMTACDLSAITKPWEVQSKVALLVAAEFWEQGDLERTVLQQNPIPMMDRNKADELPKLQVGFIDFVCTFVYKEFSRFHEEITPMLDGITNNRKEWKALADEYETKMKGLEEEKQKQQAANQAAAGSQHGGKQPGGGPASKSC
T1 sequence (P23439 2-850 limits assumed): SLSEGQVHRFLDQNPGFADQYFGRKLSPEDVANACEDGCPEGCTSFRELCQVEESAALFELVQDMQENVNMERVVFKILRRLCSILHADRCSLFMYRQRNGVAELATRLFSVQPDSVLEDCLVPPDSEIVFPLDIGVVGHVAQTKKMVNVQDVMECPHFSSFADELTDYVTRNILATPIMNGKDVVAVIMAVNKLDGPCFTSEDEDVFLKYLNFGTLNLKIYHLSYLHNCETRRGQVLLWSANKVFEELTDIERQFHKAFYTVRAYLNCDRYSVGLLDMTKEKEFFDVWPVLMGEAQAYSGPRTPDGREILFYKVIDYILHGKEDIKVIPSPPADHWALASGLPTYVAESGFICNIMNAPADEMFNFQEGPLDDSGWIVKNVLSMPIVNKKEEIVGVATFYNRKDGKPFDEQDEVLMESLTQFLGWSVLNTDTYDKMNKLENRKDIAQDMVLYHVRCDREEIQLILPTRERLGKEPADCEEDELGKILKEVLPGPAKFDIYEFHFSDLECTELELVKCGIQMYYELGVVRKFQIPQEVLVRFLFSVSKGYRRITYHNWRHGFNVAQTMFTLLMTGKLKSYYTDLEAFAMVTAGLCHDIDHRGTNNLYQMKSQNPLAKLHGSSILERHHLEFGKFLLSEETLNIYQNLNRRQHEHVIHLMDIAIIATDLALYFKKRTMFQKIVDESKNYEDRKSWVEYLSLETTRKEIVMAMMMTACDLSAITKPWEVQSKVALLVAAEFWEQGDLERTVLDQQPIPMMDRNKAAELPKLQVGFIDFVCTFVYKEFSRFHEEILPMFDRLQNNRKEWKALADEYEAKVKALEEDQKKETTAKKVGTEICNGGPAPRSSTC
Test: PDE6 enzyme inhibition assay
Assay type: biochemical, bovine
Conditions: 200 μM, 25° C., 1% DMSO vehicle

Structure (SMILES) | inhibition of PDE6
Cn1cc([S@+]([O-])CCl)c(=O)c2ccc(F)cc21 (single isomer, unassigned) [(+)-enantiomer of monochloroflosequinan] | greater than 50%
Cn1cc([S@@+]([O-])CCl)c(=O)c2ccc(F)cc21 (single isomer, unassigned) [(−)-enantiomer of monochloroflosequinan] | greater than 50%
